Ends that are not written are not given here.

The first assay deals with HLA-B7 (B*0702) (Homo sapiens, UniProt P01889). Nature of the assay: HLA-B7 (B*0702) peptide binding, competition with radiolabeled SS 5-13a (L7→Y) peptide. The note with it: purified HLA-B7.
For the molecule VPISHLHIL [MAGE2.170H7], the IC50 turned out to be 75 nM. As to VPISHLMIL [MAGE2.170M7], the half-inhibitory concentration (IC50) came to 69 nM. The IC50 values of the last two molecules are within 1.5-fold of each other.

Molecule VPISHLEIL [MAGE2.170E7] had an IC50 of 186 nM. As for VPISHLGIL [MAGE2.170G7], the IC50 is 105 nM. This IC50 lies about 1.8-fold lower than the previous one.

In a further assay the test system is human PBMC CTL; 624mel tumor cell line. Nature of the assay: Primary in vitro CTL induction from human PBMC with MAGE3.112 or analogs. The following applies: IFNγ against .221A2.1 cells with or without peptide.
As to `CC[C@H](C)[C@H](NC(=O)[C@H](CCC(=O)O)NC(=O)[C@H](C)NC(=O)[C@@H](NC(=O)[C@@H](N)CCCCN)C(C)C)C(=O)N[C@H](C(=O)N[C@@H](Cc1c[nH]cn1)C(=O)N[C@@H](Cc1ccccc1)C(=O)N[C@@H](CC(C)C)C(=O)O)C(C)C` [MAGE3.112 I5], the “peptide-specific CTL responses in human PBMC cultures stimulated with the peptide” value is “Peptide-specific CTL responses were detected”. Still for that read-out and setting: next, `CC(C)C[C@H](NC(=O)[C@H](Cc1ccccc1)NC(=O)[C@H](Cc1c[nH]c2ccccc12)NC(=O)[C@@H](NC(=O)[C@H](CC(C)C)NC(=O)[C@H](CCC(=O)O)NC(=O)[C@H](C)NC(=O)[C@@H](NC(=O)[C@@H](N)CCCCN)C(C)C)C(C)C)C(=O)O` [MAGE3.112 W7]: “Peptide-specific CTL responses were detected”.

For the origin of these results see patent publication US8741576B2, “Heteroclitic analogs and related methods” (Epimunne Inc., priority 1999, dated 2014).
